Columns and labels:
blood glucose level = test: Hypoglycemic activity in hyperglycemic KK mice; type: in vivo, hyperglycemic male mice of the KK strain; details: Mus musculus, oral, 18 hours, vs solvent-only group, read-out: Hypoglycemic effect
Description: The test animals used were hyperglycemic male mice of the KK strain, each having a body weight of at least 40 g. The compounds under test were mixed with a 1:1 by volume mixture of polyethylene glycol 400 and water. Each animal was orally administered a test compound in the amount shown in the following Table 6 and then allowed to feed freely for 18 hours. At the end of this time, blood was collected from the tail veins without anesthesia. The blood glucose level (BGL) was determined by means of a glucose analyzer (GL-101, manufactured by Mitsubishi Kasei Co. or a Glucoroder-F manufactured by Shino Test Co.).
The hypoglycemic effect was calculated by the following equation: [formula] where: BGLs is the blood glucose level in the group administered a solvent only, but no active compound; and
BGLt is the blood glucose level in the group administered a test compound.
The results are shown in the following Table 6, in which each compound of the present invention is identified by the number of one of the following Examples in which its preparation is illustrated.

[1] = molecular target: T1, Bovine lens aldose reductase (Bos taurus, UniProt P16116); test: Inhibition of Aldose reductase; type: biochemical; details: for inhibition at 5 µg/mL: read-out: Inhibition at 5 μg/ml
T1 construct: Bovine lens aldose reductase was separated and partially purified; from tissue; host or cells: bovine lens
Description: Bovine lens aldose reductase was separated and partially purified by the method of S. Hyman and J. H. Kinoshita [J. Biol. Chem., 240, 877 (1965)] and K. Inagaki, I. Miwa and J. Okuda [Arch. Biochem. Biophys., 316, 337 (1982)], and its activity was determined photometrically by the method of Varma et al. [Biochem. Pharmac., 25, 2505 (1976)]. Inhibition of enzyme activity was measured for the compounds of the present invention at a concentration of 5 μg/ml, and the measured values were used to calculate the IC50 values.

male F344 rats = test: Toxicity, 2 weeks oral in rats; type: in vivo; details: for mortality rate: oral, 50 mg/kg per day, 2 weeks, male F344 rats; for abnormalities which could be attributed to the test compounds: rat, in vivo, po, 50 mg/kg/day
Description: The toxicity of the compounds of the present invention was tested on male F344 rats, divided into groups of 5. The test compound was adminstered orally to each test animal at a dose of 50 mg/kg of body weight per day for 2 weeks. The test compounds used were those of Examples 7 and 17 .

Row | inhibition at 5 µg/mL [1] [%] | IC50 [1] [µM] | SMILES | inhibition in vivo at 10 mg/kg (blood glucose level) [%] | inhibition in vivo at 1 mg/kg (blood glucose level) [%] | mortality rate (male F344 rats) | abnormalities which could be attributed to the test compounds (male F344 rats)
1 | 54.5 | – | O=C1NC(=O)C(Cc2ccc(OCC3Cc4ccccc4N3)cc2)S1 (stereo not drawn) [Example 1, 5-[4-(Indolin-2-ylmethoxy)benzyl]thiazolidine-2,4-dione] | 13.2 | – | – | –
2 | 58.1 | 8.68 | CN1c2ccccc2CC1COc1ccc(CC2SC(=O)NC2=O)cc1 (stereo not drawn) [Example 2, 5-[4-(1-Methylidolin-2-ylmethoxy)benzyl]thiazolidine-2,4-dione] | – | 27.7 | – | –
3 | – | 10 | O=C1NC(=O)C(Cc2ccc(OCCN3CCc4ccccc43)cc2)S1 (stereo not drawn) [Example 3, 5-{4-[2-(Indolin-1-yl)ethoxyl]benzyl}thiazolidine-2,4-dione] | 27 | – | – | –
4 | – | 6.28 | O=C1NC(=O)C(Cc2ccc(OCCc3c[nH]c4ccccc34)cc2)S1 (stereo not drawn) [Example 4, 5-{4-[2-(Indol-3-yl)ethoxy]benzyl}thiazolidine-2.4dione] | – | – | – | –
5 | – | – | O=C1NC(=O)C(Cc2ccc(OCCn3cc(C(c4ccccc4)(c4ccccc4)c4ccccc4)c4ccccc43)cc2)S1 (stereo not drawn) [Example 5, 5-{4-[2-(3-Triphenylmethylindol-1-yl)ethoxyl]-benzyl}thiazolidine-2,4-dione] | 16.2 | – | – | –
6 | 47 | – | O=C1NC(=O)C(Cc2ccc(OCCn3ccc4ccccc43)cc2)S1 (stereo not drawn) [Example 6, 5-{4-[2-(Indol-1-yl)ethoxy]benzyl}thiazolidine-1-dione] | 20.9 | – | – | –
7 | 53.3 | – | O=C1NC(=O)C(Cc2ccc(OCc3cn4ccccc4n3)cc2)S1 (stereo not drawn) [Example 9, 5-{4-(Imidazo[1,2-a]pyridin-2-ylmethoxy)benzyl}-thiazolidine2,4-dione] | 27.6 | – | – | –
8 | – | – | Cn1c(COc2ccc(CC3SC(=O)NC3=O)cc2)cc2ccccc21 (stereo not drawn) [Example 10, 5-[4-(1-Methylindol-2-ylmethoxy)benzyl]thiazolidine-2,4-dione] | – | 11.6 | – | –
9 | – | 4.45 | CCn1c(COc2ccc(CC3SC(=O)NC3=O)cc2)nc2cccnc21 (stereo not drawn) [Example 12, 5-{4-(3-Ethyl-3H-imidazo[4,5-b]pyridin-2-ylmethoxy)-benzyl}thiazolidine-2,4-dione] | – | – | – | –
10 | – | 7.06 | Cn1c(COc2ccc(CC3SC(=O)NC3=O)cc2)nc2ncccc21 (stereo not drawn) [Example 13] | – | 34 | – | –
11 | 53.9 | – | Cn1c(CCCOc2ccc(CC3SC(=O)NC3=O)cc2)nc2cccnc21 (stereo not drawn) [Example 14, 5-[4-{3-(3-Methyl-3H-imidazo[4,5-b]pyridin-2-yl)-propoxy}-benzyl]thiazolidine-2,4-dione] | – | – | – | –
12 | – | 6.77 | O=C1NC(=O)C(Cc2ccc(OCc3nc4ncccc4[nH]3)cc2)S1 (stereo not drawn) [Example 15, 5-{4-(1H-Imidazo[4,5-b]pyridin-2-ylmethoxy)benzyl}-thiazolidine-2,4-dione] | – | 13.8 | – | –
13 | 59.1 | 9.67 | Cc1ccnc2c1nc(COc1ccc(CC3SC(=O)NC3=O)cc1)n2C (stereo not drawn) [Example 16, 5-{4-(3,7-Dimethyl-3H-imidazo[4,5-b]pyridin-2-ylmethoxy)benzyl}thiazolidine-2,4-dione] | – | – | – | –
14 | 76.3 | 2.02 | Cn1c(COc2ccc(CC3SC(=O)NC3=O)cc2)nc2cc(C(F)(F)F)cnc21 (stereo not drawn) [Example 18, 5-{4-(3-Methyl-6-trifluoromethyl-3H-imidazo[4,5-b]pyridin-2-ylmethoxy)benzyl}thiazolidine-2,4-dione] | – | – | – | –
15 | 61.6 | 3.76 | O=C1NC(=O)C(Cc2ccc(OCc3nc4cccnc4n3Cc3ccc(Cl)cc3)cc2)S1 (stereo not drawn) [Example 20, 5-(4-{3-(4-Chlorobenzyl)-3H-imidazo[4,5-b]pyridin-2-ylmethoxyl}benzyl)thiazolidine-2,4-dione] | – | 24.5 | – | –
16 | 77.2 | 4.02 | Cn1c(COc2ccc(CC3SC(=O)NC3=O)cc2)nc2cc(Br)cnc21 (stereo not drawn) [Example 22, 5-{4-(6-Bromo-3-methyl-3H-imidazo[4,5-b]pyridin-2-ylmethoxy)benzyl}thiazolidine-2,4-dione] | – | 10.2 | – | –
17 | 94.9 | 3.23 | Cn1c(COc2ccc(CC3SC(=O)NC3=O)cc2)nc2cc(Cl)cnc21 (stereo not drawn) [Example 23, 5-{4-(6-Chloro-3-methyl-3H-imidazo[4,5-b]pyridin-2-ylmethoxy)benzyl}thiazolidine-2,4-dione] | – | 21.7 | – | –
18 | 81.6 | 2.42 | Cn1c(COc2ccc(CC3SC(=O)NC3=O)cc2)nc2cnccc21 (stereo not drawn) [Example 25] | – | – | – | –
19 | 91.8 | 1.97 | O=C1NC(=O)C(Cc2ccc(OCc3nc4cccnc4n3-c3ccccc3)cc2)S1 (stereo not drawn) [Example 27] | – | – | – | –

Row | SMILES | inhibition at 5 µg/mL [1] [%] | IC50 [1] [µM] | inhibition in vivo at 10 mg/kg (blood glucose level) [%] | inhibition in vivo at 1 mg/kg (blood glucose level) [%] | mortality rate (male F344 rats) | abnormalities which could be attributed to the test compounds (male F344 rats)
20 | Cn1c(COc2ccc(CC3SC(=O)NC3=O)cc2)nc2cccnc21 (stereo not drawn) [Example 7, 5-{4-(3-Methyl-3H-imidazo[4,5-b]pyridin-2-methoxyl)-benzyl}thiazolidine-2,4-dione] | – | 2.71 | – | 24.7 | zero | no abnormalities
21 | Cn1c(COc2ccc(CC3SC(=O)NC3=O)cc2)nc2ccc(Cl)nc21 (stereo not drawn) [Example 17, 5-{4-(5-Chloro-3-methyl-3H-imidazo[4,5-b]pyridin-2-ylmethoxy)benzyl}thiazolidine-2,4-dione] | – | 4.47 | – | 37.1 | zero | no abnormalities

Reference: patent publication US5624935A, “Heterocyclic compounds having anti-diabetic activity and their use” (Sankyo Company, Limited, priority 1994, dated 1997)
